Assay results reported in patent publication US7304093B2, “Ketone compounds and compositions for cholesterol management and related uses” (Esperion Therapeutics, Inc., priority 2000, dated 2007).
Where two headings read alike, the source gives them in different places. Marks after values point to notes of the source that are not given here.

Test system: female obese Zucker rats
Assay: Serum lipid and glycemic control variables in chow-fed obese female Zucker rats, daily oral gavage for two weeks
Type: in vivo, rat
Conditions: for change in vivo at 100 mg/kg: Rattus norvegicus, Table 9; for Glucose / HDL-C / NEFA / Non-HDL-C / TG / Insulin: serum, mean ± SEM; for Insulin: Table 12
Outline: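 Female obese Zucker fa rats, 10–12 wk, 400–500 g, chow-fed, dosed daily by oral gavage for 14 days in CMC/Tween 20 or ethanol/PEG-200 vehicle. After a 6-h fast, serum was sampled pre-dose, day 7 and day 14. Triglycerides, total cholesterol, NEFA and β-hydroxybutyrate were measured, plus lipoprotein cholesterol by gel-filtration profiling.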

`CC(C)(CCCCCC(=O)CCCCCC(C)(C)C(=O)O)C(=O)O` [Compound 210g, 2,2,14,14-Tetramethyl-8-oxopentadecanedioic acid] was tested, and the “NEFA, percent increase (+) or decrease (−) of the pretreatment control value” (“NEFA, percent increase (+) or decrease” for short) (3 mg/kg daily oral, 1 wk) was “(−15) percent”, the “Glucose, percent increase (+) or decrease (−) of the pretreatment control value” (3 mg/kg daily oral, 2 wk) was “(+108) percent” and the “NEFA, percent increase (+) or decrease” value (3 mg/kg daily oral, 2 wk) was “(−23) percent”. For the same molecule, the “HDL-C, percent increase (+) or decrease (−) of the pretreatment control value” (10 mg/kg daily oral, 1 wk) was “(+158) percent”, the “NEFA, percent increase (+) or decrease” value (10 mg/kg daily oral, 1 wk) was “(−17) percent” and the “TG, percent increase (+) or decrease (−) of the pretreatment control value” (from here on “TG, percent increase (+) or decrease (−)”) (10 mg/kg daily oral, 1 wk) was “(−36) percent”. The “HDL-C, percent increase (+) or decrease (−) of the pretreatment control value” (10 mg/kg daily oral, 2 wk) was “(+160) percent”, the “NEFA, percent increase (+) or decrease” value (10 mg/kg daily oral, 2 wk) was “(−21) percent” and the “Non-HDL-C, percent increase (+) or decrease (−) of the pretreatment control value” (10 mg/kg daily oral, 2 wk) was “(+155) percent”. For the same molecule, the “HDL-C, percent increase (+) or decrease (−) of the pretreatment control value” (30 mg/kg daily oral, 1 wk) was “(+256) percent”, the “Insulin, percent increase (+) or decrease (−) of the pretreatment control value” (30 mg/kg daily oral, 1 wk) was “(−35) percent” and the “NEFA, percent increase (+) or decrease” value (30 mg/kg daily oral, 1 wk) was “(−32) percent”. For the same molecule, the “Non-HDL-C, percent increase (+) or decrease (−) of the pretreatment control value” (30 mg/kg daily oral, 1 wk) was “(−48) percent”, the “TG, percent increase (+) or decrease (−)” value (30 mg/kg daily oral, 1 wk) was “(−78) percent” and the “HDL-C, percent increase (+) or decrease (−) of the pretreatment control value” (30 mg/kg daily oral, 2 wk) was “(+335) percent”. The “Insulin, percent increase (+) or decrease (−) of the pretreatment control value” (30 mg/kg daily oral, 2 wk) was “(−21) percent”, the “NEFA, percent increase (+) or decrease” value (30 mg/kg daily oral, 2 wk) was “(−49) percent” and the “TG, percent increase (+) or decrease (−)” value (30 mg/kg daily oral, 2 wk) was “(−52) percent”. The “Glucose, percent increase (+) or decrease (−) of the pretreatment control value” (100 mg/kg daily oral, 1 wk) was “(−21) percent”, the “HDL-C, percent increase (+) or decrease (−) of the pretreatment control value” (100 mg/kg daily oral, 1 wk) was “(+151) percent” and the “Insulin, percent increase (+) or decrease (−) of the pretreatment control value” (100 mg/kg daily oral, 1 wk) was “(−46) percent”. For the same molecule, the “NEFA, percent increase (+) or decrease” value (100 mg/kg daily oral, 1 wk) was “(−30) percent”, the “Non-HDL-C, percent increase (+) or decrease (−) of the pretreatment control value” (100 mg/kg daily oral, 1 wk) was “(−92) percent” and the “TG, percent increase (+) or decrease (−)” value (100 mg/kg daily oral, 1 wk) was “(−93) percent”. For the same molecule, the “Glucose, percent increase (+) or decrease (−) of the pretreatment control value” (100 mg/kg daily oral, 2 wk) was “(−10) percent”, the “HDL-C, percent increase (+) or decrease (−) of the pretreatment control value” (100 mg/kg daily oral, 2 wk) was “(+213) percent” and the “Insulin, percent increase (+) or decrease (−) of the pretreatment control value” (100 mg/kg daily oral, 2 wk) was “(−50) percent”. For the same molecule, the “NEFA, percent increase (+) or decrease” value (100 mg/kg daily oral, 2 wk) was “(−52) percent”, the “Non-HDL-C, percent increase (+) or decrease (−) of the pretreatment control value” (100 mg/kg daily oral, 2 wk) was “(−88) percent” and the “TG, percent increase (+) or decrease (−)” value (100 mg/kg daily oral, 2 wk) was “(−92) percent”. The change in vivo at 100 mg/kg (168 h, 100 mg/kg daily oral, 1 wk, read-out: HDL-Cholesterol, Percent Change from Pre-Treatment) was 72%, the change in vivo at 100 mg/kg (168 h, 100 mg/kg daily oral, 1 wk, read-out: NonHDL-Cholesterol, Percent Change from Pre-Treatment) was -98% and the change in vivo at 100 mg/kg (168 h, 100 mg/kg daily oral, 1 wk, read-out: TG, Percent Change from Pre-Treatment) was -93%. The change in vivo at 100 mg/kg (336 h, 100 mg/kg daily oral, 2 wk, read-out: HDL-Cholesterol, Percent Change from Pre-Treatment) was 168%, the change in vivo at 100 mg/kg (336 h, 100 mg/kg daily oral, 2 wk, read-out: NonHDL-Cholesterol, Percent Change from Pre-Treatment) was -99% and the change in vivo at 100 mg/kg (336 h, 100 mg/kg daily oral, 2 wk, read-out: TG, Percent Change from Pre-Treatment) was -94%. It also gave a Glucose (3 mg/kg daily oral, 1 wk) of 117 ± 4 mg/dL, an HDL-C (3 mg/kg daily oral, 1 wk) of 75 ± 6 mg/dL and an NEFA (3 mg/kg daily oral, 1 wk) of 1.1 ± 0.07. The Non-HDL-C (3 mg/kg daily oral, 1 wk) was 23 ± 2 mg/dL, the TG (3 mg/kg daily oral, 1 wk) was 995 ± 50^a mg/dl and the Insulin (3 mg/kg daily oral, 1 wk) was 10.0 ± 1.0 ng/mL. For the same molecule, the Glucose (3 mg/kg daily oral, 2 wk) was 124 ± 4^a mg/dl, the HDL-C (3 mg/kg daily oral, 2 wk) was 77 ± 8 mg/dL and the NEFA (3 mg/kg daily oral, 2 wk) was 1.0 ± 0.10. The Non-HDL-C (3 mg/kg daily oral, 2 wk) was 25 ± 2 mg/dL, the TG (3 mg/kg daily oral, 2 wk) was 833 ± 57 mg/dL and the Insulin (3 mg/kg daily oral, 2 wk) was 7.3 ± 0.5 ng/mL. The Glucose (10 mg/kg daily oral, 1 wk) was 122 ± 3 mg/dL, the HDL-C (10 mg/kg daily oral, 1 wk) was 136 ± 11^a mg/dl and the NEFA (10 mg/kg daily oral, 1 wk) was 1.0 ± 0.07. The Non-HDL-C (10 mg/kg daily oral, 1 wk) was 22 ± 2 mg/dL, the TG (10 mg/kg daily oral, 1 wk) was 553 ± 35^a mg/dl and the Insulin (10 mg/kg daily oral, 1 wk) was 10.5 ± 1.1 ng/mL. The Glucose (10 mg/kg daily oral, 2 wk) was 125 ± 4 mg/dL, the HDL-C (10 mg/kg daily oral, 2 wk) was 138 ± 8^a mg/dl and the NEFA (10 mg/kg daily oral, 2 wk) was 0.95 ± 0.08. The Non-HDL-C (10 mg/kg daily oral, 2 wk) was 34 ± 3^a mg/dl, the TG (10 mg/kg daily oral, 2 wk) was 865 ± 69 mg/dL and the Insulin (10 mg/kg daily oral, 2 wk) was 9.1 ± 0.7 ng/mL. For the same molecule, the Glucose (30 mg/kg daily oral, 1 wk) was 108 ± 4 mg/dL, the HDL-C (30 mg/kg daily oral, 1 wk) was 159 ± 12^a mg/dl and the NEFA (30 mg/kg daily oral, 1 wk) was 0.88 ± 0.06. The Non-HDL-C (30 mg/kg daily oral, 1 wk) was 14 ± 2^a mg/dl, the TG (30 mg/kg daily oral, 1 wk) was 213 ± 19^a mg/dl and the Insulin (30 mg/kg daily oral, 1 wk) was 6.4 ± 0.6^a ng/ml. The Glucose (30 mg/kg daily oral, 2 wk) was 130 ± 4 mg/dL, the HDL-C (30 mg/kg daily oral, 2 wk) was 208 ± 14^a mg/dl and the NEFA (30 mg/kg daily oral, 2 wk) was 0.66 ± 0.03. The Non-HDL-C (30 mg/kg daily oral, 2 wk) was 30 ± 2 mg/dL, the TG (30 mg/kg daily oral, 2 wk) was 475 ± 38^a mg/dl and the Insulin (30 mg/kg daily oral, 2 wk) was 7.7 ± 0.9^a ng/ml. The Glucose (100 mg/kg daily oral, 1 wk) was 92 ± 4^a mg/dl, the HDL-C (100 mg/kg daily oral, 1 wk) was 100 ± 8^a mg/dl and the NEFA (100 mg/kg daily oral, 1 wk) was 0.98 ± 0.08. For the same molecule, the Non-HDL-C (100 mg/kg daily oral, 1 wk) was 2 ± 1^a mg/dl, the TG (100 mg/kg daily oral, 1 wk) was 69 ± 5^a mg/dl and the Insulin (100 mg/kg daily oral, 1 wk) was 6.4 ± 1.3^a ng/ml. For the same molecule, the Glucose (100 mg/kg daily oral, 2 wk) was 105 ± 3^a mg/dl, the HDL-C (100 mg/kg daily oral, 2 wk) was 141 ± 12^a mg/dl and the NEFA (100 mg/kg daily oral, 2 wk) was 0.66 ± 0.08. For the same molecule, the Non-HDL-C (100 mg/kg daily oral, 2 wk) was 3 ± 1^a mg/dl, the TG (100 mg/kg daily oral, 2 wk) was 78 ± 10^a mg/dl and the Insulin (100 mg/kg daily oral, 2 wk) was 6.0 ± 0.8^a ng/ml.
